Tests used:
Type in all cases: cell-based
[1] = molecular target: T1, Muscarinic acetylcholine receptor M2 (Homo sapiens, UniProt P08172); experiment: Binding affinity against human muscarine receptor (hM2) cloned in CHO cells
T1 sequence (P08172 whole entry): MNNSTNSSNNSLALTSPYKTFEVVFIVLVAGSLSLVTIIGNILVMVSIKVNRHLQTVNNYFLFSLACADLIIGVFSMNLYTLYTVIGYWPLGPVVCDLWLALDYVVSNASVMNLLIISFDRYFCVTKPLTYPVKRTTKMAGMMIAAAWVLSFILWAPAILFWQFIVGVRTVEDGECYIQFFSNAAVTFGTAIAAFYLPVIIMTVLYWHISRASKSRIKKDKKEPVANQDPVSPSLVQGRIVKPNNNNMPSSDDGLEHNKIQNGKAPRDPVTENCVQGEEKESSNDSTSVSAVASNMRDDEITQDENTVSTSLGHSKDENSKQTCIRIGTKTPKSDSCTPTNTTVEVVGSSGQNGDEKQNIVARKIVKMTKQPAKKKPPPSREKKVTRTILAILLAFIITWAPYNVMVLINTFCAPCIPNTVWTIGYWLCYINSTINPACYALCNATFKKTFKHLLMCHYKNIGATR

[2] = molecular target: Muscarinic acetylcholine receptor M3 (Homo sapiens, UniProt P20309); experiment: Binding affinity against human muscarine receptor (hM3) cloned in CHO cells
[3] = molecular target: T2, Muscarinic acetylcholine receptor M1 (Homo sapiens, UniProt P11229); experiment: Binding affinity against human muscarine receptor (hM1) cloned in CHO cells
T2 sequence (P11229 whole entry): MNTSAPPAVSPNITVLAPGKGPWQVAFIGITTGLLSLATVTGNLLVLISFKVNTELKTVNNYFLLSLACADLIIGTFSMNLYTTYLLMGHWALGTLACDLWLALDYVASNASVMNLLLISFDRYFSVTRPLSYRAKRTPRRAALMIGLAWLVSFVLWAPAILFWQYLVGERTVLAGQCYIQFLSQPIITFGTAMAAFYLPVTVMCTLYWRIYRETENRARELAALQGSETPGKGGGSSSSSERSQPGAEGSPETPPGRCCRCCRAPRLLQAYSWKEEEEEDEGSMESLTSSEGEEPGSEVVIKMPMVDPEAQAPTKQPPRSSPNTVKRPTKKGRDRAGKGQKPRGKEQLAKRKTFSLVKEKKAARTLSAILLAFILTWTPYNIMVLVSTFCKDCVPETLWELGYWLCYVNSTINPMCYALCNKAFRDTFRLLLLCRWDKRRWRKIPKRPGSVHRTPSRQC

[4] = molecular target: T3, Muscarinic acetylcholine receptor M4 (Homo sapiens, UniProt P08173); experiment: Binding affinity against human muscarine receptor (hM4) cloned in CHO cells
T3 sequence (P08173 whole entry): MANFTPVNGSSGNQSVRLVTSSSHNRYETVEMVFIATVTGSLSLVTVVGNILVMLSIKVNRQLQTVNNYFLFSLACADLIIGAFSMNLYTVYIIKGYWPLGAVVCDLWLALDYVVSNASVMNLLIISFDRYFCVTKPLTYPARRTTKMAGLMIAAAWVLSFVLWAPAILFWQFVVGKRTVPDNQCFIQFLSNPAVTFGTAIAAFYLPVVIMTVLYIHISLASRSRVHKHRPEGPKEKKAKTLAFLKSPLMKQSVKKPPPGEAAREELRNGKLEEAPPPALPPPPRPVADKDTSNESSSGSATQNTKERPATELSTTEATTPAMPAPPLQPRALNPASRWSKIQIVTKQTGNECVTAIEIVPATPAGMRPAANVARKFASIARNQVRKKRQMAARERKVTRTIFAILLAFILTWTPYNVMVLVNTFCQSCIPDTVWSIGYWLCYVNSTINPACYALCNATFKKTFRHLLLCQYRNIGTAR

Sequence of Muscarinic acetylcholine receptor M3 (P20309 whole entry): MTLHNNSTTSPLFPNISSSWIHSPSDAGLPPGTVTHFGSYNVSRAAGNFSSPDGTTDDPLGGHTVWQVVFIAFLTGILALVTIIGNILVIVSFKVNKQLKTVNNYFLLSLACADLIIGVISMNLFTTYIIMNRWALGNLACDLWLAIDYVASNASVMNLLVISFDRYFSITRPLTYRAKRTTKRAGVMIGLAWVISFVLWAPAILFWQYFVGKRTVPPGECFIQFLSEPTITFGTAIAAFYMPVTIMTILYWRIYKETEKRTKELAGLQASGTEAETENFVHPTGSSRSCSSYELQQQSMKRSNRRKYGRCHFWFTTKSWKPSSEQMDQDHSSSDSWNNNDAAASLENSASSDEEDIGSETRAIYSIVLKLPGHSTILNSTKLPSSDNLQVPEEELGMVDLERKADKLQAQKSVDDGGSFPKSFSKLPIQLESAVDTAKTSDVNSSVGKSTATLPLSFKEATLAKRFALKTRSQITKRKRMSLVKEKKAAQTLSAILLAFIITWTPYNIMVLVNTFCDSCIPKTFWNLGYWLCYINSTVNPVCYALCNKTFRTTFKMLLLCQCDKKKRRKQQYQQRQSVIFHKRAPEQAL

| Compound | Ki [1] [nM] | Ki [2] [nM] | Ki [3] [nM] | Ki [4] [nM] |
| --- | --- | --- | --- | --- |
| C[C@@H]1OC(=O)[C@H]2C[C@H]3CCCC[C@H]3[C@H](C#C[C@H]3CCC[C@H](C)N3C)[C@@H]12 | 1150 | 5010 | 5370 | 1740 |
| C[C@@H]1OC(=O)[C@H]2C[C@H]3CCCC[C@@H]3[C@@H](C#C[C@H]3CCC[C@H](C)N3C)[C@@H]12 | 309 | 3310 | 3240 | 891 |
| C[C@@H]1OC(=O)[C@@H]2C[C@@H]3CCCC[C@@H]3[C@@H](/C=C/[C@H]3CCC[C@H](C)N3C)[C@H]12 | 95.5 | – | 427 | – |
| C[C@@H]1OC(=O)[C@@H]2C[C@@H]3CCCC[C@@H]3[C@@H](C#C[C@H]3CCC[C@H](C)N3C)[C@H]12 | 1170 | 11000 | 3240 | 1950 |
| C[C@@H]1OC(=O)[C@H]2C[C@H]3CCCC[C@@H]3[C@@H](/C=C\[C@H]3CCC[C@H](C)N3C)[C@@H]12 | 1740 | – | 1510 | – |
| C[C@@H]1OC(=O)[C@@H]2C[C@@H]3CCCC[C@@H]3[C@@H](/C=C\[C@H]3CCC[C@H](C)N3C)[C@H]12 | 676 | – | 2340 | – |
| C[C@@H]1OC(=O)[C@H]2C[C@H]3CCCC[C@H]3[C@H](/C=C/[C@H]3CCC[C@H](C)N3C)[C@@H]12 | 170 | – | 1740 | – |
| C[C@@H]1OC(=O)[C@H]2C[C@H]3CCCC[C@H]3[C@H](/C=C\[C@H]3CCC[C@H](C)N3C)[C@@H]12 | 851 | – | 2570 | – |
| C[C@@H]1OC(=O)[C@H]2C[C@H]3CCCC[C@@H]3[C@@H](/C=C/[C@H]3CCC[C@H](C)N3C)[C@@H]12 [HIMBACINE] | 4.68 | – | 158 | – |

Source: ChEMBL document CHEMBL1135177 (Bioorg Med Chem Lett, 2002)
